Tested on: advanced solid tumours
Test: Tumour response and PFS per RECIST v1.1, overall efficacy-evaluable population
Assay type: in vivo, human
Details: for Best overall response: Not evaluable / Best overall response: Partial response / Best overall response: Progressive disease / Best overall response: Stable disease / Clinical benefit rate / Disease control rate / Objective response rate / Best overall response: Complete response / Best overall response: Not assessed: dose escalation
Experimental: Pamiparib in plasma was measured using a validated liquid chromatography-tandem–mass spectrometry assay with a lower limit of quantification of 1.0 ng/mL. The collection schedule for blood samples used to assess the PK profile is presented in the Supplemental Appendix. Summary PK parameters, including area under the concentration-time curve from time 0 to 9 h (AUC0-9) or infinity (AUC0-inf), maximal plasma concentration (Cmax) and time to maximal plasma concentration (Tmax), were estimated. The pharmacodynamic (PD) activity of pamiparib was explored through the evaluation of poly(ADP-ribose [PAR]) formation in peripheral blood mononuclear cells (PBMCs) after pamiparib administration. The schedule for blood sample collection (PK and PBMCs) and additional assessment information for PAR levels in PBMCs and pharmacodynamic activity is presented in the Supplemental Appendix. Antitumor activity was assessed by radiographic imaging (computed tomography or magnetic resonance imaging) during screening, within 28 days of first pamiparib dose, every 6 weeks in the first 12 months and every 9 weeks thereafter.
Tumour response was evaluated by RECIST v1.1. For patients with ovarian cancer, tumour response was assessed per RECIST v1.1 and by Gynecologic Cancer Intergroup (GCIG) CA-125 criteria. Tumour response for patients with prostate cancer was assessed by Prostate Cancer Clinical Trials Working Group 2 (PCWG2) criteria. Objective response rate (ORR) was defined as the proportion of patients achieving a confirmed complete response (CR) or partial response (PR) on study treatment. Blood tumour antigens (e.g., carcinoembryonic antigen for colorectal cancer, CA-125 for ovarian cancer and prostate-specific antigen [PSA] for mCRPC) were assessed during screening, every 6 weeks after the first pamiparib dose in the first 12 months, and every 9 weeks thereafter.
The safety population comprised all patients in the dose-escalation and dose-expansion phases who received at least one dose of pamiparib (Supplementary Table S2). Patients in the safety analysis set for whom valid pamiparib PK parameters were estimated and for whom evaluable PD results were available represented the PK population and the PD population, respectively. The efficacy-evaluable population included patients in the safety analysis set who had at least one evaluable postbaseline tumour assessment or those who discontinued due to clinical disease progression or early death before tumour assessment could be performed. The EOC efficacy-evaluable population was a subset of the overall efficacy-evaluable population that included patients with EOC from both the dose-escalation and dose-expansion phases. Patients in the dose-expansion phase without measurable disease at baseline per RECIST v1.1 were excluded from the efficacy-evaluable population.
Descriptive statistics were used to summarise all study data (see Supplemental Appendix). Progression-free survival (PFS) and event-free rates were estimated using the Kaplan–Meier method along with the corresponding 95% CI. Pharmacokinetic parameters were derived using standard non-compartmental methods with Phoenix WinNonlin Version 6.4 or higher (Pharsight Corp., Mountain View, California).

[1] = overall efficacy-evaluable population (n=95)

C[C@]12CCCN1CC1=NNC(=O)c3cc(F)cc4[nH]c2c1c34 [pamiparib]
Best overall response: Not evaluable (10 mg BID (n=3)): 0 (0.0) n (%) | Best overall response: Partial response (10 mg BID (n=3)): 0 (0.0) n (%) | Best overall response: Progressive disease (10 mg BID (n=3)): 1 (33.3) n (%) | Best overall response: Stable disease (10 mg BID (n=3)): 2 (66.7) n (%) | Clinical benefit rate (10 mg BID (n=3)): 0.0 (0.00-70.76) % (95% CI) | Disease control rate (10 mg BID (n=3)): 66.7 (9.43-99.16) % (95% CI) | Objective response rate (10 mg BID (n=3)): 0.0 (0.00-70.76) % (95% CI) | Best overall response: Complete response (20 mg BID (n=3)): 1 (33.3) n (%) | Best overall response: Not assessed (20 mg BID (n=3)): 0 (0.0) n (%) | Best overall response: Not evaluable (20 mg BID (n=3)): 0 (0.0) n (%) | Best overall response: Partial response (20 mg BID (n=3)): 1 (33.3) n (%) | Best overall response: Progressive disease (20 mg BID (n=3)): 1 (33.3) n (%) | Best overall response: Stable disease (20 mg BID (n=3)): 0 (0.0) n (%) | Clinical benefit rate (20 mg BID (n=3)): 66.7 (9.43-99.16) % (95% CI) | Disease control rate (20 mg BID (n=3)): 66.7 (9.43-99.16) % (95% CI) | Objective response rate (20 mg BID (n=3)): 66.7 (9.43-99.16) % (95% CI) | Best overall response: Complete response (40 mg BID (n=6)): 0 (0.0) n (%) | Best overall response: Not assessed (40 mg BID (n=6)): 0 (0.0) n (%) | Best overall response: Not evaluable (40 mg BID (n=6)): 0 (0.0) n (%) | Best overall response: Partial response (40 mg BID (n=6)): 2 (33.3) n (%) | Best overall response: Progressive disease (40 mg BID (n=6)): 0 (0.0) n (%) | Best overall response: Stable disease (40 mg BID (n=6)): 4 (66.7) n (%) | Clinical benefit rate (40 mg BID (n=6)): 33.3 (4.33-77.72) % (95% CI) | Disease control rate (40 mg BID (n=6)): 100.0 (54.07-100.00) % (95% CI) | Objective response rate (40 mg BID (n=6)): 33.3 (4.33-77.72) % (95% CI) | Best overall response: Complete response (60 mg BID (n=11)): 1 (9.1) n (%) | Best overall response: Not assessed (60 mg BID (n=11)): 2 (18.2) n (%) | Best overall response: Not evaluable (60 mg BID (n=11)): 0 (0.0) n (%) | Best overall response: Partial response (60 mg BID (n=11)): 0 (0.0) n (%) | Best overall response: Progressive disease (60 mg BID (n=11)): 3 (27.3) n (%) | Best overall response: Stable disease (60 mg BID (n=11)): 5 (45.5) n (%) | Clinical benefit rate (60 mg BID (n=11)): 18.2 (2.28-51.78) % (95% CI) | Disease control rate (60 mg BID (n=11)): 54.5 (23.38-83.25) % (95% CI) | Objective response rate (60 mg BID (n=11)): 9.1 (0.23-41.28) % (95% CI) | Best overall response: Complete response (80 mg BID (n=9)): 1 (11.1) n (%) | Best overall response: Not assessed (80 mg BID (n=9)): 1 (11.1) n (%) | Best overall response: Not evaluable (80 mg BID (n=9)): 0 (0.0) n (%) | Best overall response: Partial response (80 mg BID (n=9)): 1 (11.1) n (%) | Best overall response: Progressive disease (80 mg BID (n=9)): 1 (11.1) n (%) | Best overall response: Stable disease (80 mg BID (n=9)): 5 (55.6) n (%) | Clinical benefit rate (80 mg BID (n=9)): 44.4 (13.70-78.80) % (95% CI) | Disease control rate (80 mg BID (n=9)): 77.8 (39.99-97.19) % (95% CI) | Objective response rate (80 mg BID (n=9)): 22.2 (2.81-60.01) % (95% CI) | Best overall response: Complete response (120 mg BID (n=5)): 0 (0.0) n (%) | Best overall response: Not assessed (120 mg BID (n=5)): 1 (20.0) n (%) | Best overall response: Not evaluable (120 mg BID (n=5)): 1 (20.0) n (%) | Best overall response: Partial response (120 mg BID (n=5)): 1 (20.0) n (%) | Best overall response: Progressive disease (120 mg BID (n=5)): 1 (20.0) n (%) | Best overall response: Stable disease (120 mg BID (n=5)): 1 (20.0) n (%) | Clinical benefit rate (120 mg BID (n=5)): 20.0 (0.51-71.64) % (95% CI) | Disease control rate (120 mg BID (n=5)): 40.0 (5.27-85.34) % (95% CI) | Objective response rate (120 mg BID (n=5)): 20.0 (0.51-71.64) % (95% CI) | Best overall response: Complete response (Total BID (N=44)): 3 (6.8) n (%) | Best overall response: Not assessed (Total BID (N=44)): 7 (15.9) n (%) | Best overall response: Not evaluable (Total BID (N=44)): 1 (2.3) n (%) | Best overall response: Partial response (Total BID (N=44)): 7 (15.9) n (%) | Best overall response: Progressive disease (Total BID (N=44)): 8 (18.2) n (%) | Best overall response: Stable disease (Total BID (N=44)): 18 (40.9) n (%) | Clinical benefit rate (Total BID (N=44)): 29.5 (16.76-45.20) % (95% CI) | Disease control rate (Total BID (N=44)): 63.6 (47.77-77.59) % (95% CI) | Objective response rate (Total BID (N=44)): 22.7 (11.47-37.84) % (95% CI) | Patients who died (efficacy-evaluable patients (N 95), n = 10): 10.5% | Patients who progressed (efficacy-evaluable patients (N 95), n = 50): 52.6% | Patients who died or progressed (efficacy-evaluable patients, 60/95): 63.2% | Confirmed complete responses [1]: 4.2% | Confirmed partial responses [1]: 20% | Confirmed ORR (overall efficacy-evaluable population (n=95), BID and QD): 24.2%

— PMC8854719, “Phase 1A/1B dose-escalation and -expansion study to evaluate the safety, pharmacokinetics, food effects and antitumor activity of pamiparib in advanced solid tumours” (British Journal of Cancer, 2021)
